Measured values published in ChEMBL document CHEMBL3885861, “Open TG-GATES”.

Organism: Rattus norvegicus
Test: Open TG-GATES - Regimen: Single
Format: toxicity, organism-based, Sprague-Dawley
Design: regimen Single, gender Male, age 6 weeks
Conditions: in vivo, po, route gavage; for APTT / Bas / Eos / Fbg / Hb / Ht / Lym / MCH / MCHC / MCV / Mono / Neu / PT / Plat / RBC / Ret / WBC: tissue Blood; for KIDNEY_L / KIDNEY_R / KIDNEY_TOTAL: tissue Kidney; for LIVER: tissue Liver; for ALP / ALT / AST / BUN / CRE / DBIL / GLC / K / LDH / Na / PL / RALB / TBIL / TC / TG / TP / gamma-GTP: tissue Plasma
[1] = 150 mg/kg, 3 h, dose level Middle
[2] = 150 mg/kg, 6 h, dose level Middle
[3] = 150 mg/kg, 9 h, dose level Middle
[4] = 150 mg/kg, 24 h, dose level Middle
[5] = 450 mg/kg, 3 h, dose level High
[6] = 450 mg/kg, 6 h, dose level High
[7] = 450 mg/kg, 9 h, dose level High
[8] = 450 mg/kg, 24 h, dose level High

## CC(CCc1ccccc1)NCC(O)c1ccc(O)c(C(N)=O)c1 (configuration not stated) [LABETALOL]
[1]
  TERMINAL_BW: 215.7 g
  APTT: 16.5 s
  Bas: 0%
  Eos: 0.8%
  Fbg: 263.6 mg/dL
  Hb: 12.4 g/dL
  Ht: 36.2%
  Lym: 77%
  MCH: 21.9 pg
  MCHC: 34.1%
  MCV: 64.2 fL
  Mono: 3%
  Neu: 18.6%
  PT: 13.3 s
  Plat: 115.1 x10_4/uL
  RBC: 564.6 x10_4/ul
  Ret: 8.3%
  WBC: 77.1 x10_2/uL
  KIDNEY_L: 1 g
  KIDNEY_R: 0.9 g
  KIDNEY_TOTAL: 1.9 g
  LIVER: 9.4 g
  ALP: 1401.4 IU/L
  ALT: 46 IU/L
  AST: 73.6 IU/L
  BUN: 12 mg/dL
  CRE: 0.2 mg/dL
  DBIL: 0.01 mg/dL
  GLC: 207.2 mg/dL
  K: 3.7 meq/L
  LDH: 48.6 IU/L
  Na: 142.2 meq/L
  PL: 125.2 mg/dL
  RALB: 2.5 g/dL
  TBIL: 0.042 mg/dL
  TC: 70 mg/dL
  TG: 49.4 mg/dL
  TP: 5.2 g/dL
  gamma-GTP: 1.4 IU/L
[2]
  TERMINAL_BW: 215.9 g
  APTT: 15.9 s
  Bas: 0%
  Eos: 1%
  Fbg: 269.8 mg/dL
  Hb: 12.5 g/dL
  Ht: 36.5%
  Lym: 74.6%
  MCH: 21.1 pg
  MCHC: 34.3%
  MCV: 61.7 fL
  Mono: 3.6%
  Neu: 20.2%
  PT: 13.1 s
  Plat: 106.3 x10_4/uL
  RBC: 593.6 x10_4/ul
  Ret: 7.9%
  WBC: 81 x10_2/uL
  KIDNEY_L: 0.9 g
  KIDNEY_R: 0.9 g
  KIDNEY_TOTAL: 1.8 g
  LIVER: 8.9 g
  ALP: 1487.8 IU/L
  ALT: 39.4 IU/L
  AST: 71 IU/L
  BUN: 9.4 mg/dL
  CRE: 0.2 mg/dL
  DBIL: 0.01 mg/dL
  GLC: 199.4 mg/dL
  K: 4.2 meq/L
  LDH: 44.8 IU/L
  Na: 142.8 meq/L
  PL: 126 mg/dL
  RALB: 2.4 g/dL
  TBIL: 0.04 mg/dL
  TC: 73.2 mg/dL
  TG: 41.8 mg/dL
  TP: 5.1 g/dL
  gamma-GTP: 1 IU/L
[3]
  TERMINAL_BW: 213.9 g
  APTT: 15.6 s
  Bas: 0%
  Eos: 0.8%
  Fbg: 287.8 mg/dL
  Hb: 12.5 g/dL
  Ht: 37.1%
  Lym: 77.6%
  MCH: 21.8 pg
  MCHC: 33.7%
  MCV: 64.8 fL
  Mono: 1.8%
  Neu: 19.6%
  PT: 13.2 s
  Plat: 106.5 x10_4/uL
  RBC: 572.4 x10_4/ul
  Ret: 8.2%
  WBC: 82.4 x10_2/uL
  KIDNEY_L: 0.9 g
  KIDNEY_R: 0.9 g
  KIDNEY_TOTAL: 1.9 g
  LIVER: 8.7 g
  ALP: 1516.4 IU/L
  ALT: 41.4 IU/L
  AST: 68.4 IU/L
  BUN: 10.2 mg/dL
  CRE: 0.2 mg/dL
  DBIL: 0.01 mg/dL
  GLC: 185.4 mg/dL
  K: 3.9 meq/L
  LDH: 42.4 IU/L
  Na: 144.6 meq/L
  PL: 136.6 mg/dL
  RALB: 2.6 g/dL
  TBIL: 0.036 mg/dL
  TC: 77.8 mg/dL
  TG: 56.6 mg/dL
  TP: 5.5 g/dL
  gamma-GTP: 1.2 IU/L
[4]
  TERMINAL_BW: 223.2 g
  APTT: 14.8 s
  Bas: 0%
  Eos: 1%
  Fbg: 345.2 mg/dL
  Hb: 13.1 g/dL
  Ht: 38.4%
  Lym: 71.6%
  MCH: 21 pg
  MCHC: 34.2%
  MCV: 61.4 fL
  Mono: 3.8%
  Neu: 23%
  PT: 12.7 s
  Plat: 116.5 x10_4/uL
  RBC: 625.6 x10_4/ul
  Ret: 8.2%
  WBC: 77.1 x10_2/uL
  KIDNEY_L: 0.9 g
  KIDNEY_R: 0.9 g
  KIDNEY_TOTAL: 1.8 g
  LIVER: 10.1 g
  ALP: 1738.6 IU/L
  ALT: 45.6 IU/L
  AST: 76 IU/L
  BUN: 16.6 mg/dL
  CRE: 0.2 mg/dL
  DBIL: 0.016 mg/dL
  GLC: 180.6 mg/dL
  K: 4.3 meq/L
  LDH: 72.6 IU/L
  Na: 143.2 meq/L
  PL: 159.6 mg/dL
  RALB: 2.6 g/dL
  TBIL: 0.038 mg/dL
  TC: 92 mg/dL
  TG: 96.4 mg/dL
  TP: 5.7 g/dL
  gamma-GTP: 1.2 IU/L
[5]
  TERMINAL_BW: 212.9 g
  APTT: 17.6 s
  Bas: 0%
  Eos: 1%
  Fbg: 255.2 mg/dL
  Hb: 12.2 g/dL
  Ht: 35.8%
  Lym: 76%
  MCH: 21.5 pg
  MCHC: 34.1%
  MCV: 62.9 fL
  Mono: 3.2%
  Neu: 19.4%
  PT: 13 s
  Plat: 109.9 x10_4/uL
  RBC: 569.4 x10_4/ul
  Ret: 8.1%
  WBC: 70.3 x10_2/uL
  KIDNEY_L: 1 g
  KIDNEY_R: 0.9 g
  KIDNEY_TOTAL: 1.9 g
  LIVER: 9.4 g
  ALP: 1740.2 IU/L
  ALT: 47 IU/L
  AST: 73 IU/L
  BUN: 13.2 mg/dL
  CRE: 0.2 mg/dL
  DBIL: 0.01 mg/dL
  GLC: 198.4 mg/dL
  K: 3.9 meq/L
  LDH: 56.8 IU/L
  Na: 142.4 meq/L
  PL: 124 mg/dL
  RALB: 2.4 g/dL
  TBIL: 0.04 mg/dL
  TC: 68.4 mg/dL
  TG: 39.2 mg/dL
  TP: 5.2 g/dL
  gamma-GTP: 1.4 IU/L
[6]
  TERMINAL_BW: 216.2 g
  APTT: 16.6 s
  Bas: 0%
  Eos: 1%
  Fbg: 288.6 mg/dL
  Hb: 12.2 g/dL
  Ht: 36.2%
  Lym: 75.4%
  MCH: 21.9 pg
  MCHC: 33.8%
  MCV: 64.8 fL
  Mono: 2.6%
  Neu: 20.4%
  PT: 12.6 s
  Plat: 112.1 x10_4/uL
  RBC: 561 x10_4/ul
  Ret: 8.2%
  WBC: 89.2 x10_2/uL
  KIDNEY_L: 1 g
  KIDNEY_R: 0.9 g
  KIDNEY_TOTAL: 1.9 g
  LIVER: 9 g
  ALP: 1401.4 IU/L
  ALT: 42.6 IU/L
  AST: 69.8 IU/L
  BUN: 10 mg/dL
  CRE: 0.2 mg/dL
  DBIL: 0.006 mg/dL
  GLC: 188.8 mg/dL
  K: 4.1 meq/L
  LDH: 53.4 IU/L
  Na: 143.4 meq/L
  PL: 131 mg/dL
  RALB: 2.5 g/dL
  TBIL: 0.038 mg/dL
  TC: 78 mg/dL
  TG: 23.2 mg/dL
  TP: 5.2 g/dL
  gamma-GTP: 1 IU/L
[7]
  TERMINAL_BW: 218.2 g
  APTT: 16 s
  Bas: 0%
  Eos: 0.8%
  Fbg: 285 mg/dL
  Hb: 12.8 g/dL
  Ht: 37.5%
  Lym: 75.4%
  MCH: 22.6 pg
  MCHC: 34.1%
  MCV: 66.1 fL
  Mono: 2%
  Neu: 21.4%
  PT: 12.9 s
  Plat: 98.6 x10_4/uL
  RBC: 567 x10_4/ul
  Ret: 8%
  WBC: 90.3 x10_2/uL
  KIDNEY_L: 0.9 g
  KIDNEY_R: 0.9 g
  KIDNEY_TOTAL: 1.8 g
  LIVER: 8.5 g
  ALP: 1515.4 IU/L
  ALT: 49.6 IU/L
  AST: 71.2 IU/L
  BUN: 9 mg/dL
  CRE: 0.2 mg/dL
  DBIL: 0.01 mg/dL
  GLC: 179 mg/dL
  K: 4.2 meq/L
  LDH: 41.2 IU/L
  Na: 144.2 meq/L
  PL: 135 mg/dL
  RALB: 2.5 g/dL
  TBIL: 0.044 mg/dL
  TC: 78 mg/dL
  TG: 30.6 mg/dL
  TP: 5.2 g/dL
  gamma-GTP: 1 IU/L
[8]
  TERMINAL_BW: 219.8 g
  APTT: 15.5 s
  Bas: 0%
  Eos: 1%
  Fbg: 290.8 mg/dL
  Hb: 13 g/dL
  Ht: 38.1%
  Lym: 74%
  MCH: 21.6 pg
  MCHC: 34.2%
  MCV: 62.9 fL
  Mono: 2.6%
  Neu: 22%
  PT: 12.6 s
  Plat: 115.1 x10_4/uL
  RBC: 605.2 x10_4/ul
  Ret: 7.5%
  WBC: 68.4 x10_2/uL
  KIDNEY_L: 1 g
  KIDNEY_R: 0.9 g
  KIDNEY_TOTAL: 1.9 g
  LIVER: 9.6 g
  ALP: 1840.6 IU/L
  ALT: 44 IU/L
  AST: 74 IU/L
  BUN: 17.4 mg/dL
  CRE: 0.2 mg/dL
  DBIL: 0.012 mg/dL
  GLC: 167.8 mg/dL
  K: 4.7 meq/L
  LDH: 55.2 IU/L
  Na: 142.2 meq/L
  PL: 144.8 mg/dL
  RALB: 2.6 g/dL
  TBIL: 0.03 mg/dL
  TC: 88 mg/dL
  TG: 57.8 mg/dL
  TP: 5.6 g/dL
  gamma-GTP: 1.2 IU/L
